From paper PMC7856883 (Advanced Science, 2020)
Where “and” joins values, the source holds several entries; their conditions need not be identical. Equal values may be shown once.

Test system: A/California/09
Design: species or system BALB/c mice
Settings: mouse, in vivo

`CCOC(=O)C1=C[C@@H](OC(CC)CC)[C@H](NC(C)=O)[C@@H](N)C1` [oseltamivir] was tested, and the survival was 10/10 and 0 out of 10 and no survival.
